Assay results as given in article PMC12467740, “Synthesis, Characterization, and Screening Anticancer—Antibiofilm Activities of Theophylline Derivatives Containing CF3/OCF3 Moiety” (Biology, 2025).
Several values for one entry are separate records, joined by “and”; a condition that tells them apart may be missing. Identical values can stand only once.

Key:
HeLa cells [1] = test: RT-qPCR of apoptosis-related genes, HeLa; type: cell-based, human; settings: IC50 concentration, 48 h, vs untreated control
Protocol: (§1) Total RNA was isolated from cells using the RNeasy Mini Kit (Qiagen GmbH, Hilden, Germany) according to the manufacturer’s instructions. RNA quality and quantity were evaluated spectrophotometrically. Subsequently, cDNA synthesis was performed using the iScript™ cDNA Synthesis Kit (Bio-Rad Laboratories, Hercules, CA, USA).
(§2) RT-qPCR reactions (LightCycler® 480 Instrument II (Roche Diagnostics, Mannheim, Germany) were carried out using SYBR™ Green PCR Master Mix (Applied Biosystems, Foster City, CA, USA) and gene-specific primers targeting pro-apoptotic genes (CASP3, CASP8, CASP9, BAX, BAK1, PUMA, NOXA, CYCS), anti-apoptotic genes (BCL2, BCL-XL, MCL1), cell cycle/stress-related genes (TP53, CDKN1A/p21, GADD45A, ATF4), and the reference gene GAPDH. The primer sequences used for each gene are presented in the Supplementary File (Figure S66).
(§3) All reactions were conducted in triplicate, and negative controls (no-template controls, NTC) were included in each run. Relative gene expression levels were analyzed using the 2^−ΔΔCt method, and results were normalized to control samples (control expression set as ‘1’) and expressed as fold change relative to controls.

A549 cells [2] = test: MTT cell viability assay, A549; type: cell-based, human; settings: for IC50: MTT, 48 h, mean ± SD (n = 3); for SI (A549): ratio of IC50 in BEAS-2B cells to IC50 in A549 cells
Protocol: (§4) The anticancer potential of substituted theophylline derivatives was investigated using human lung carcinoma (A549, CCL-185) and cervical cancer (HeLa, CCL-2) cell lines obtained from the American Type Culture Collection (ATCC). To evaluate the selectivity of the tested compounds, cytotoxicity was also assessed in a healthy human bronchial epithelial cell line (BEAS-2B, ATCC CRL-9609). Cells were maintained in DMEM (Euroclone S.p.A., Pero, Italy supplemented with 10% fetal bovine serum (Sigma-Aldrich, St. Louis, MO, USA) and 1% penicillin–streptomycin (1%, Capricorn Scientific GmbH, Ebsdorfergrund, Germany at 37 °C in a humidified atmosphere containing 5% CO2. The theophylline-derived compounds (1a–1e) were dissolved in DMSO to prepare 100 mM stock solutions, which were then diluted with DMEM to obtain final working concentrations ranging from 3.125 µM to 100 µM. To evaluate cell viability, the MTT colorimetric assay was employed. Upon reaching logarithmic growth, A549, HeLa and BEAS-2B cells were seeded at a density of 7000 cells per well in 96-well microplates and allowed to attach for 24 h. Following this, cells were treated with different concentrations of the compounds and incubated for 48 h. After treatment, 100 µL of fresh medium and 20 µL of MTT reagent (5 mg/mL, Bio Basic Inc., Markham, ON, Canada) were added to each well, and cells were incubated for an additional 3 h. The resulting formazan crystals were solubilized with DMSO. Cell viability was calculated as the percentage of absorbance relative to untreated controls, and IC50 values were determined by nonlinear regression analysis using GraphPad Prism software, version 8.0 (GraphPad Software, San Diego, CA, USA. All experiments were performed in at least three independent replicates, and results are reported as mean ± SD. The percentage of inhibition was calculated based on the reduction in metabolic activity of the cells following compound treatment, as assessed by the MTT assay. The absorbance was measured at 570 nm using a microplate reader. The inhibition (%) was calculated using the following formula:Inhibition %=[1 − (Asample − Ablank)/[…]] × 100 To assess the tumor selectivity of the tested theophylline derivatives, the selectivity index (SI) was calculated for each compound. SI is defined as the ratio of the IC50 value in healthy (non-tumorigenic) cells to the IC50 value in cancer cells. In this study, IC50 values were determined for BEAS-2B (non-tumorigenic human bronchial epithelial cells) as a healthy control and for A549 (lung adenocarcinoma) and HeLa (cervical carcinoma) as tumor models. The SI was calculated according to the following equation:SI = [IC50, healthy/IC50, cancer]

HeLa cells [3] = test: ELISA of apoptosis-related proteins, HeLa; type: cell-based, human; settings: IC50, 48 h, vs untreated controls
Protocol: (§5) To validate the gene expression changes observed in the RT-qPCR analysis at the protein level, ELISA assays were conducted to measure the protein levels in A549 and HeLa cells. […] Following incubation, cells were washed with cold PBS and lysed using RIPA buffer supplemented with protease and phosphatase inhibitors. […] was removed by centrifugation at 14,000× g for 10 min. Total protein concentration in the cell lysates was determined spectrophotometrically using the BCA Protein Assay Kit (Thermo Scientific, Waltham, MA, USA). Protein concentrations were standardized to equal amounts across all samples prior to ELISA analysis. Commercially available Human ELISA Kit (Abcam, Cambridge, UK) were used to quantify Caspase-3, BAX, BCL-2, and Cytochrome C levels, and all assays were performed according to the manufacturers’ protocols. Absorbance was measured at 450 nm using a microplate reader. All experiments were conducted in triplicate. The results were normalized to the control group (control = 1) and expressed as fold change relative to untreated controls.

BEAS-2B cells = test: MTT cell viability assay, BEAS-2B; type: cell-based; settings: Homo sapiens, 48 h, mean ± SD (n = 3)
Protocol: as §4

A549 cells [4] = test: RT-qPCR of apoptosis-related genes, A549; type: cell-based, human; settings: A549, IC50 concentration, 48 h, vs untreated control
Protocol: as §1, §2, §3

HeLa cells [5] = test: MTT cell viability assay, HeLa; type: cell-based, human; settings: for IC50: 48 h, MTT, mean ± SD (n = 3); for SI (HeLa): ratio of IC50 in BEAS-2B cells to IC50 in HeLa cells
Protocol: as §4

Pseudomonas aeruginosa = test: Well plate biofilm formation assay (crystal violet); type: cell-based; settings: over the concentration range given per compound (Table 4)
Protocol: (§6) The well plate assay was utilized to test the effectiveness of compounds in inhibiting biofilms made by microorganisms. An amount of 100 μL of Brucella broth (Remel, Lenexa, KS, USA) containing 1% and 20% glucose (Biolife, Milan, Italy), were dispensed into the test wells. In the next step, 100 μL of compounds ranging from 0.244 to 1000 μg/mL were poured into the wells. […] Then, 0.5 McFarland standard in physiological saline from each microorganism strain were prepared and 20 μL of the prepared suspension was added to the wells. A column of the microplate containing 100 μL Brucella broth served as a negative control and another column of the microplate containing 100 μL Brucella with 20 μL of each microorganism added served as a growth control. As positive controls, ciprofloxacin was applied against bacterial strains at a concentration range of 0.03125-64 μg/mL, and fluconazole was used against Candida albicans at a concentration range of 0.3125-640 μg/mL. Plates were left to incubate at 36.5 °C for a day. The plates were emptied and then washed three times with 300 μL of deionized water. The wells were left to dry for half an hour. The next step was staining with 0.1% (w/v) violet dye ([…]), cleaning three times with deionized water, and drying at room temperature. The crystal violet adhering to the wall of the wells was dissolved with 95% ethanol, and the optical density was measured at 570 nm. The test was run two times, and the mean value was calculated. Biofilm preventing (%) = {(ODb - ODc)/ODb} × 100.

Staphylococcus aureus = test: as above; type: cell-based; settings: over the concentration range given per compound (Table 4); 1c and 1e at 1000 µg/mL
Protocol: as §6

Escherichia coli = test: as above; type: cell-based; settings: over the concentration range given per compound (Table 4)
Protocol: as §6

Candida albicans = test: as above; type: cell-based; settings: over the concentration range given per compound (Table 4)
Protocol: as §6

Enterococcus faecalis = test: as above; type: cell-based; settings: over the concentration range given per compound (Table 4)
Protocol: as §6

A549 cells [6] = test: ELISA of apoptosis-related proteins, A549; type: cell-based, human; settings: A549, IC50, 48 h, vs untreated controls
Protocol: as §5

CYP450 = settings: cited from earlier work

Row | Compound | IC50 (A549 cells [2]; Homo sapiens, A549, 48 h) [µM] | IC50 (A549 cells [2]) [µM] | SI (A549) (A549 cells [2]) | IC50 (BEAS-2B cells) [µM] | IC50 (HeLa cells [5]; Homo sapiens, HeLa) [µM] | SI (HeLa) (HeLa cells [5]) | Antibiofilm activity Pseudomonas aeruginosa (Pseudomonas aeruginosa) | Antibiofilm activity Staphylococcus aureus (Staphylococcus aureus) | Antibiofilm activity Escherichia coli (Escherichia coli) | Antibiofilm activity Candida albicans (Candida albicans) | Antibiofilm activity Enterococcus faecalis (Enterococcus faecalis) | IC50 (HeLa cells [5]) [µM] | other results
1 | Cn1c(=O)c2c(ncn2Cc2ccccc2C(F)(F)F)n(C)c1=O [Compound 1a, 1,3-Dimethyl-7-(2-(trifluoromethyl)benzyl)-3,7-dihydro-1H-purine-2,6-dione] | 15.7 ± 0.6 | 12.4 ± 0.7 | 8.06 ± 0.03 and 8.06 ± 0.10 | 100 ± 2 | 11.5 ± 1.2 | 8.70 ± 0.20 | did not show antibiofilm activity and – | did not show antibiofilm activity and – | did not show antibiofilm activity and – | 0.5–13.7% | 1.08–14.7% |  | Expression of anti-apoptotic genes (BCL2, BCL-XL, MCL1) (HeLa cells [1]): notable downregulation; Expression of pro-apoptotic genes (CASP3, CASP8, CASP9, BAX, BAK1, PUMA, NOXA, CYCS) and cell cycle/stress genes (TP53, CDKN1A, FAS, GADD45A, ATF4) (HeLa cells [1]): significant upregulation; Protein level of BCL-2 (HeLa cells [3]): marked decrease; Protein levels of Caspase-3, BAX and Cytochrome C (HeLa cells [3]): significant increases; Expression of anti-apoptotic genes (BCL2, BCL-XL, MCL1) (A549 cells [4]): notable downregulation; Expression of pro-apoptotic genes (CASP3, CASP8, CASP9, BAX, BAK1, PUMA, NOXA, CYCS) and cell cycle/stress genes (TP53, CDKN1A, FAS, GADD45A, ATF4) (A549 cells [4]): significant upregulation; Protein level of BCL-2 (A549 cells [6]): marked decrease; Protein levels of Caspase-3, BAX and Cytochrome C (A549 cells [6]): significant increases
2 | Cn1c(=O)c2c(ncn2Cc2cccc(C(F)(F)F)c2)n(C)c1=O [Compound 1b, 1,3-Dimethyl-7-(3-(trifluoromethyl)benzyl)-3,7-dihydro-1H-purine-2,6-dione] | 12.4 ± 0.7 | 13.6 ± 0.9 | 8.82 ± 0.20 | 120 ± 3 | 10.8 ± 0.8 | 8.16 ± 0.16 | did not show antibiofilm activity and – | did not show antibiofilm activity and – | did not show antibiofilm activity and – | 0.8–23.9% | 5.7–23.1% | 14.7 ± 0.7 | 
3 | C[C@]12CC[C@H](O)CC1=CC[C@@H]1[C@@H]2CC[C@]2(C)C(c3cccnc3)=CC[C@@H]12 [Abiraterone] |  |  |  |  |  |  |  |  |  |  |  |  | binding properties (docking) (CYP450): -10.3 kcal/mol
4 | Cn1c(=O)c2c(ncn2Cc2cc(C(F)(F)F)cc(C(F)(F)F)c2)n(C)c1=O [Compound 1d, 1,3-Dimethyl-7-(3,5-bis(trifluoromethyl)benzyl)-3,7-dihydro-1H-purine-2,6-dione] | 29.1 ± 0.5 | 31.4 ± 1 | 4.78 ± 0.14 | 150 ± 4 | 32.4 ± 0.85 | 4.35 ± 0.13 | did not show antibiofilm activity and – | did not show antibiofilm activity and – | did not show antibiofilm activity and – | 1.8–11.8% | 0.7–23.9% | 34.5 ± 1 | 
5 | Cn1c(=O)c2c(ncn2Cc2ccc(OC(F)(F)F)cc2)n(C)c1=O [Compound 1e, 1,3-Dimethyl-7-(4-(trifluoromethoxy)benzyl)-3,7-dihydro-1H-purine-2,6-dione] | 31.4 ± 1 | 29.1 ± 0.5 | 4.81 ± 0.09 | 140 ± 3 | 34.5 ± 1.25 | 4.32 ± 0.11 | did not show antibiofilm activity and – | 13.6% | did not show antibiofilm activity and – | 0.4–23.4% | 5.1–13.9% | 32.4 ± 0.8 | 
6 | Cn1c(=O)c2c(ncn2Cc2ccc(C(F)(F)F)cc2)n(C)c1=O [Compound 1c, 1,3-Dimethyl-7-(4-(trifluoromethyl)benzyl)-3,7-dihydro-1H-purine-2,6-dione] | 13.6 ± 0.9 | 15.7 ± 0.6 | 5.73 ± 0.15 | 90 ± 3 | 14.7 ± 0.7 | 7.83 ± 0.22 | did not show antibiofilm activity and – | 20.1% | did not show antibiofilm activity and – | 0.9–12.3% | 0.7–16.0% | 11.5 ± 1.2 | 
